Results: US20030166645A1, “Novel nitrofuran-containing heterocyclic compounds and uses thereof” (priority 2001, published 2003)
Values after ≈ are worked out from the molar mass of the structure shown.

Legend:
[1] = test system: E. coli; assay: Systemic bacterial infection model, mice infected with E. coli
[2] = test system: E coli; assay: Microdilution antimicrobial susceptibility test (MIC); type: cell-based; settings: broth microdilution, 18-24 h, MIC = 90% inhibition of growth; for MIC: read-out: MIC E coli MIC2
[3] = test system: S aureus; assay: as above; type: cell-based; settings: broth microdilution, 18-24 h, MIC = 90% inhibition of growth; for MIC: read-out: MIC S aureus MIC2
[4] = test system: M. catarrhalis; assay: as above; type: cell-based; settings: broth microdilution, 18-24 h, MIC = 90% inhibition of growth; for MIC: Moraxella catarrhalis, read-out: MIC M. catarrhalis MIC2
[5] = test system: S pneumoniae; assay: as above; type: cell-based; settings: broth microdilution, 18-24 h, CO2-enriched atmosphere, MIC = 90% inhibition of growth; for MIC: read-out: MIC S pneumoniae MIC6
[6] = test system: E coli (ImpA); assay: as above; type: cell-based; settings: broth microdilution, 18-24 h, MIC = 90% inhibition of growth; for MIC: read-out: MIC E coli (ImpA) MIC9
Method: Microdilution Antimicrobial Susceptibility Test Assay
Stock solutions of tested compounds were prepared in N,N-dimethylformamide (DMF) at a concentration of 5 mg/mL. Working solutions of the tested compounds were then prepared from the stock solutions, in Mueller-Hinton broth (MHB) with a starting concentration of 64 μg/mL.
Bacterial inocula were prepared from overnight culture (i.e., one fresh colony from agar plate in 5 ml MHB; H. influenzae was grown in MHB with the addition of yeast extract, haematin, and NAD), centrifuged 2×5 min/3000 rpm (for S. pneumoniae and H. influenzae, 2×10 min/3000 rpm), and dispensed in 5 ml of fresh MHB each time, such that the bacterial suspension is diluted to obtain 100 colony forming units (cfu) in a microplate well (100 μl total volume).
Microplate wells were filled with two-fold dilutions of test compound (50 Al), starting with 64 μg/ml. Wells were then filled with 50 μl of bacterial inoculum (final volume: 100 μl/well). The plates were incubated at 37° C. for 18-24 hours (S. pneumoniae was grown in a CO2-enriched atmosphere).

[7] = test system: P aeruginosa; assay: as above; type: cell-based; settings: broth microdilution, 18-24 h, MIC = 90% inhibition of growth; for MIC: read-out: MIC P aeruginosa MIC2
[8] = test system: S cerevisiae; assay: as above; type: cell-based; settings: broth microdilution, 18-24 h, MIC = 90% inhibition of growth; for MIC: read-out: MIC S cerevisiae MIC7
[9] = test system: E faecalis; assay: as above; type: cell-based; settings: broth microdilution, 18-24 h, MIC = 90% inhibition of growth; for MIC: read-out: MIC E faecalis MIC2
[10] = test system: H influenzae; assay: as above; type: cell-based; settings: broth microdilution, 18-24 h, MIC = 90% inhibition of growth; for MIC: read-out: MIC H influenzae MIC4
[11] = test system: Bacteroides vulgatus; assay: Antimicrobial agar dilution test of anaerobic bacteria (MIC); type: cell-based; settings: 48 h
[12] = test system: Bacteroides thetaiotaomicron; type: cell-based; settings: agar dilution, anaerobic, 48 h
[13] = test system: Bacteroides fragilis; assay: Antimicrobial agar dilution test of anaerobic bacteria (MIC); type: cell-based; settings: 48 h

Structure (SMILES) | MIC E coli MIC2 [2] [µg/mL] | MIC S aureus MIC2 [3] [µg/mL] | MIC M. catarrhalis MIC2 [4] [µg/mL] | MIC S pneumoniae MIC6 [5] [µg/mL] | MIC E coli (ImpA) MIC9 [6] [µg/mL] | MIC P aeruginosa MIC2 [7] [µg/mL] | MIC S cerevisiae MIC7 [8] [µg/mL] | MIC E faecalis MIC2 [9] [µg/mL] | MIC H influenzae MIC4 [10] [µg/mL] | further results
Cn1c(-c2ccc([N+](=O)[O-])o2)nnc1S(=O)(=O)O [Compound 107, 5-[2-(5-Nitro)furyl]-4-methyl-4H-1,2,4-triazole-3-sulfonic Acid] | – | – | – | – | – | – | – | – | – | Survival (%) ([1]; Study #4, 50 mg/kg IP QD × 3, 6 days observation): 70%; Survival (%) ([1]; Study #4, 75 mg/kg IP QD × 3, 6 days observation): 90%; MIC [2]: 2 µg/mL (≈ 7.29 µM); MIC [3]: 16 µg/mL (≈ 58.3 µM); MIC [4]: 1 µg/mL (≈ 3.65 µM); MIC [5]: 32 µg/mL (≈ 117 µM); MIC [6]: 4 µg/mL (≈ 14.6 µM); MIC [7]: > 64 µg/mL; MIC [8]: 64 µg/mL (≈ 233 µM); MIC [9]: > 64 µg/mL; MIC [10]: 16 µg/mL (≈ 58.3 µM)
O=C(N[C@H](CO)[C@H](O)c1ccc([N+](=O)[O-])cc1)C(Cl)Cl [Chloramphenicol] | – | – | – | – | – | – | – | – | – | MIC Bacteroides vulgatus [11]: < 0.125 µg/mL; MIC Bacteroides thetaiotaomicron [12]: 4 µg/mL (≈ 12.4 µM); MIC Bacteroides fragilis ([13]; first B. fragilis column): 4 µg/mL (≈ 12.4 µM); MIC Bacteroides fragilis ([13]; second B. fragilis column): 4 µg/mL (≈ 12.4 µM); MIC Bacteroides fragilis ([13]; third B. fragilis column): 4 µg/mL (≈ 12.4 µM)
COc1cc(Cc2cnc(N)nc2N)cc(OC)c1OC [Trimethoprim, reference compound] | – | – | – | – | – | – | – | – | – | MIC [2]: 0.25 µg/mL (≈ 0.861 µM); MIC [3]: 2 µg/mL (≈ 6.89 µM); MIC [4]: 32 µg/mL (≈ 110 µM); MIC [5]: 8 µg/mL (≈ 27.6 µM); MIC [6]: < 0.12 µg/mL; MIC [7]: > 64 µg/mL; MIC [8]: > 64 µg/mL; MIC [9]: < 0.12 µg/mL; MIC [10]: < 0.12 µg/mL
C[C@@H](O)[C@H]1C(=O)N2C(C(=O)O)=C(SCCN=CN)C[C@H]12 [Imipenem] | – | – | – | – | – | – | – | – | – | MIC Bacteroides vulgatus [11]: < 0.125 µg/mL; MIC Bacteroides thetaiotaomicron [12]: < 0.125 µg/mL; MIC Bacteroides fragilis ([13]; first B. fragilis column): < 0.125 µg/mL; MIC Bacteroides fragilis ([13]; second B. fragilis column): < 0.125 µg/mL; MIC Bacteroides fragilis ([13]; third B. fragilis column): < 0.125 µg/mL
O=[N+]([O-])c1ccc(-c2nnc(S(=O)(=O)O)n2-c2ccccc2)o1 [Compound 127] | >64 | >64 | 32 (≈ 95.2 µM) | >64 | 64 (≈ 190 µM) | >64 | >64 | >64 | >64 | –
O=[N+]([O-])c1ccc(-c2nnc(S(=O)(=O)O)n2-c2ccc(Cl)cc2)o1 [Compound 132] | >64 | 32 (≈ 86.3 µM) | 4 (≈ 10.8 µM) | 32 (≈ 86.3 µM) | 16 (≈ 43.2 µM) | >64 | 64 (≈ 173 µM) | >64 | 8 (≈ 21.6 µM) | –
CNS(=O)(=O)c1nnc(-c2ccc([N+](=O)[O-])o2)n1C [Compound 106, 5-[2-(5-Nitro)furyl]-4-methyl-4H-1,2,4-triazole-3-methyl Sulfonamide] | – | – | – | – | – | – | – | – | – | MIC [2]: 8 µg/mL (≈ 27.8 µM); MIC [3]: > 64 µg/mL; MIC [4]: 2 µg/mL (≈ 6.96 µM); MIC [5]: 64 µg/mL (≈ 223 µM); MIC [6]: 4 µg/mL (≈ 13.9 µM); MIC [7]: > 64 µg/mL; MIC [8]: 64 µg/mL (≈ 223 µM); MIC [9]: > 64 µg/mL; MIC [10]: 32 µg/mL (≈ 111 µM)
O=[N+]([O-])c1ccc(-c2nnc(S(=O)(=O)O)n2C2CCCCC2)o1 [Compound 131] | >64 | >64 | 8 (≈ 23.4 µM) | 64 (≈ 187 µM) | >64 | >64 | >64 | >64 | 64 (≈ 187 µM) | –
CCC[C@@H]1C[C@@H](C(=O)N[C@@H]([C@H]2O[C@H](SC)[C@H](O)[C@@H](O)[C@H]2O)[C@H](C)Cl)N(C)C1 [Clindamycin] | – | – | – | – | – | – | – | – | – | MIC Bacteroides vulgatus [11]: < 0.125 µg/mL; MIC Bacteroides fragilis ([13]; first B. fragilis column): 1 µg/mL (≈ 2.35 µM); MIC Bacteroides fragilis ([13]; second B. fragilis column): 1 µg/mL (≈ 2.35 µM); MIC Bacteroides fragilis ([13]; third B. fragilis column): 1 µg/mL (≈ 2.35 µM)
Cn1c(-c2ccc([N+](=O)[O-])o2)nnc1S(=O)(=O)Nc1ccccc1 [Compound 123] | >64 | 64 (≈ 183 µM) | 1 (≈ 2.86 µM) | 8 (≈ 22.9 µM) | 16 (≈ 45.8 µM) | >64 | >64 | 64 (≈ 183 µM) | 16 (≈ 45.8 µM) | –
O=[N+]([O-])c1ccc(-c2nnc(S)n2-c2cccc(Cl)c2)o1 [Compound 140] | >64 | 1 (≈ 3.1 µM) | <0.12 | 2 (≈ 6.2 µM) | 0.5 (≈ 1.55 µM) | >64 | >64 | 16 (≈ 49.6 µM) | 4 (≈ 12.4 µM) | –
O=[N+]([O-])c1ccc(-c2nnc(S)n2-c2ccc(Oc3ccccc3)cc2)o1 [Compound 143] | >64 | 0.25 (≈ 0.657 µM) | <0.12 | 0.5 (≈ 1.31 µM) | <0.12 | >64 | >64 | 1 (≈ 2.63 µM) | >64 | –
O=[N+]([O-])c1ccc(-c2nnc(S)n2Cc2ccco2)o1 [Compound 125] | >64 | 8 (≈ 27.4 µM) | 0.5 (≈ 1.71 µM) | 8 (≈ 27.4 µM) | 4 (≈ 13.7 µM) | >64 | >64 | 64 (≈ 219 µM) | 4 (≈ 13.7 µM) | –
O=[N+]([O-])c1ccc(-c2nnc(S(=O)(=O)O)n2Cc2ccccc2)o1 [Compound 128] | >64 | >64 | 16 (≈ 45.7 µM) | 64 (≈ 183 µM) | >64 | >64 | >64 | >64 | 64 (≈ 183 µM) | –
